We go through six molecules from patent US20080221060A1, “Therapeutic Compounds” (priority 2004, published 2008).

Values joined by “and” are separate entries in the source; they are usually repeats but may differ in a detail not shown here. Equal values may be shown once. Read-outs that look alike come from different tables or passages of the source.

The target of data set [1] is adenosine A2A receptor (UniProt P30543). The data set can be described thus: EC50 at the adenosine A2A receptor. The data set is classed as biochemical. The source says:
(§1) For the avoidance of doubt, the EC50 value of a compound is defined herein as the concentration of the compound that provokes a receptor response halfway between the baseline receptor response and the maximum receptor response (as determined, for example, using a dose-response curve).
(§2) The EC50 value should be determined under standard conditions (balanced salt solutions buffered to pH 7.4). For EC50 determinations using isolated membranes, cells and tissues this would be in buffered salt solution at pH 7.4 (e.g. cell culture medium), for example as in Daly et al, Pharmacol. (1993) 46, 91-100), or preferably as in Tilburg et al (J. Med. Chem. (2002) 45, 91-100). The EC50 could also be determined in vivo by measuring adenosine receptor mediated responses in a normal healthy animal, or even in a tissue perfused under normal conditions (i.e. oxygenated blood, or oxygenated isotonic media, also buffered at pH 7.4) in a normal healthy animal.

Data set [2] has as its target adenosine receptors (Rattus norvegicus, UniProt P30543). Description: EC50 at adenosine receptors measured at pH 7.4. The data set is classed as biochemical. Conditions: measured at pH7.4.
From the text: as §1, §2

The nature of data set [3]: blood pressure and heart rate in rats (radiotelemetry). The data set is classed as in vivo, rat. The source says: An implantable radiotelemetry device was placed in the abdominal cavity of 6 rats per group. The pressure catheter of the device was inserted in the abdominal aorta and two electrodes tunnelised under the skin in a lead II position (left side of abdominal cavity/right shoulder). Individual rats were placed in their own cage on a radioreceptor (DSI) for data acquisition. A: blood pressure; B: heart rate.

For data set [4], the system named is carrageenan (CGN) induced thermal hyperalgesia. The data set can be described thus: carrageenan induced thermal hyperalgesia (CITH). It counts as in vivo. As to conditions: 0.624 mg/kg p.o.; indomethacin 3 mg/kg po as comparator. Here is the method: A. […] Carrageenan (2%, 10 microlitres) was administered into the right hind paw. A heat source was placed close to the treated and untreated hind paws, and the difference in the paw withdrawal latencies is shown. Spongosine was administered at the same time as carrageenan.

Data set [5] has as its system chronic constriction injury model of neuropathic pain. Description: thermal hyperalgesia, chronic constriction injury of the rat sciatic nerve. As to conditions: rat CCI, 0.624 mg/kg p.o. It counts as in vivo. The source says:
After approximately two weeks the rats developed thermal hyperalgesia in the operated leg as judged by the difference in paw withdrawal latencies of the right and left paws.

Data set [6] has the same test system. The data set can be described thus: static allodynia, chronic constriction injury of the rat sciatic nerve. The data set is classed as in vivo. Conditions: rat CCI. The source says:
The total dose administered is shown on the horizontal axis, and the paw withdrawal threshold (PWT) on the vertical axis.

Data set [7] deals with human macrophage cell line U937. Description: LPS induced TNF alpha release in U937 cells. It counts as cell-based. Conditions: 100 ng/ml LPS, 3 hours. Here is the method:
Cells of human macrophage cell line U937 were grown in suspension to 500,000 cells/ml, plated out into 48 well plates, treated with 20 ng/ml PMA and incubated for 8 hours. Cells adhered to well bottoms and were washed and allowed to recover for 36 hours before use. […] After 3 hours the cell supernatants were assayed for TNF alpha using fluorescence labeled ELISA kits.

Data set [8] is described as follows: plasma concentrations after single oral dosing in human volunteers. The data set is classed as in vivo.
A short description of data set [9]: tachycardia by 12 lead ECGs in human volunteers. The data set is classed as in vivo. As for the experimental part: Tachycardia was determined using 12 lead ECGs.
The test system of data set [10] is carrageenan (CGN) induced inflammation. Description: carrageenan induced paw inflammation (plethysmometry). The data set is classed as in vivo. Conditions: rat, 62.4 and 624 μg/kg i.p.; indomethacin 3 mg/kg po as comparator. Here is the method: Carrageenan (2%, 10 microlitres) was administered into the right hind paw of a rat, and the paw volume assessed by plethysomometry. Spongosine was administered at the same time as carrageenan.
(In general: Carrageenan injected into the paw causes an acute inflammation.)

For data set [11], the system named is carageenan-induced inflammation. Conditions: rats, 20 mg/kg po; cited from earlier work.
The conditions of data set [12]: 20 mg/kg po; cited from earlier work.
Data set [13] has as its target T1, rat adenosine A1 receptor (Rattus norvegicus, UniProt P25099).
T1 sequence (P25099 1-326): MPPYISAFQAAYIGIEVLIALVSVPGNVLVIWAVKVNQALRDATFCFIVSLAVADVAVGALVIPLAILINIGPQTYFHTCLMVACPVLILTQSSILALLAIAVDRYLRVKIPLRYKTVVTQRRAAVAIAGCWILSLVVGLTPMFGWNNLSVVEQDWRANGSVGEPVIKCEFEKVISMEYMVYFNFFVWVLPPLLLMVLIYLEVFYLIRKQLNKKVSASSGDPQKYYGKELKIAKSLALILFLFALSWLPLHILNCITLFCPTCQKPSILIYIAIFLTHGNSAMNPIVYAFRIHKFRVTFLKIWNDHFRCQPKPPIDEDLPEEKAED
As to conditions: cited from earlier work.

For data set [14], the target named is rat A2A receptor (Rattus norvegicus, UniProt P30543). Conditions: read-out: EC50 for stimulation of the rat A2A receptor; cited from earlier work.
Data set [15] deals with T2, adenosine A1 receptor (Cavia porcellus, UniProt P47745).
T2 construct: host or cells: guinea pig isolated heart
T2 sequence (P47745 1-326): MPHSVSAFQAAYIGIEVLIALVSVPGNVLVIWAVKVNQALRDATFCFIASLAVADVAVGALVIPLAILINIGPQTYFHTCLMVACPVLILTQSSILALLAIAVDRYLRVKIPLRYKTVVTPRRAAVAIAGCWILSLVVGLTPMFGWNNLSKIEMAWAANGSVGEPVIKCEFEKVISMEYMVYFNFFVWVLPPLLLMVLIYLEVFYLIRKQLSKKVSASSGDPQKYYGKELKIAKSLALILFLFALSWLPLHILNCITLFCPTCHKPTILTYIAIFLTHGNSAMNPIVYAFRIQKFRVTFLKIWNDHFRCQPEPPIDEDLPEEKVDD
Conditions: guinea pig; read-out: EC50, adenosine A1 receptor, isolated heart preparation; cited from earlier work.

For data set [16], the target named is T3, adenosine A2A receptor (Cavia porcellus, UniProt P46616).
T3 construct: host or cells: guinea pig isolated heart
Conditions: guinea pig; read-out: EC50, adenosine A2A receptor, isolated heart preparation; cited from earlier work.

In data set [17] the target is adenosine receptors (rat striatal membranes, [3H]-CGS21680) (Rattus norvegicus, UniProt P30543). The data set can be described thus: Ki from displacement of [3H]-CGS21680 in rat striatal membranes at pH 5.5 and pH 7.4. It counts as binding. Also on record: from tissue; host or cells: rat striatum (membranes). As to conditions: for Ki: 2 nM [3H]-CGS21680, 90 minutes at 22° C. (In general: Loss of bound radioactivity is the signal in a displacement assay; it reports binding, not function.)

The mark [18] stands for this setting: pH 5.5, read-out: (Ki) nM (pH 5.5).
Setting [19] is: pH 7.4, read-out: (Ki) nM (pH 7.4).

adenosine receptors (rat striatal membranes, [3H]-CGS21680), sequence (P30543 whole entry): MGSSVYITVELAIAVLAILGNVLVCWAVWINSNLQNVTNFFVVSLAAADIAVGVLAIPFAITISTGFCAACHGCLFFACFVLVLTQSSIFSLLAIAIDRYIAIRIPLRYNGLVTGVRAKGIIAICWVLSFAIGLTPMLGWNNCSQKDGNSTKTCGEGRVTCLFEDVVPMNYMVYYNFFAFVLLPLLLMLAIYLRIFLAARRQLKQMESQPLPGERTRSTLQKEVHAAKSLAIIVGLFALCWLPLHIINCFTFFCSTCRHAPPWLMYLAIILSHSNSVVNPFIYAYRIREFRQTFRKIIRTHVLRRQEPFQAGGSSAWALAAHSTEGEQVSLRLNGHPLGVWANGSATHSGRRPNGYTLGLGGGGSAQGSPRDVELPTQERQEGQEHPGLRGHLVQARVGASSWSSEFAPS
adenosine receptors, sequence (P30543 whole entry): as above
T3 sequence (P46616 whole entry): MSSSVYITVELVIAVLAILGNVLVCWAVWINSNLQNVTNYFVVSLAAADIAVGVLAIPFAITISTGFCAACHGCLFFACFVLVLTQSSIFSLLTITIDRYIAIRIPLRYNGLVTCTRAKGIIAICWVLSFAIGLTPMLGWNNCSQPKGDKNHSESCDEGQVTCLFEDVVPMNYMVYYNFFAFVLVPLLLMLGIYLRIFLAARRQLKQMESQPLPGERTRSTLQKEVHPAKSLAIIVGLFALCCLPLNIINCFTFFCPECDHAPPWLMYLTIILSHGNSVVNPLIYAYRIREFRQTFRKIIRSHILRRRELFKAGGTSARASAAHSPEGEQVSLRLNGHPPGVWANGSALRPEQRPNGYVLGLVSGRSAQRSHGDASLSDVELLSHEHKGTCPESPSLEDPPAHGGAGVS
rat A2A receptor, sequence (P30543 whole entry): as the sequence (P30543 whole entry) above

For the molecule `COc1nc(N)c2ncn([C@@H]3O[C@H](CO)[C@@H](O)[C@H]3O)c2n1` [Compound 1, 2-methoxyadenosine], the EC50 in data set [1] is around 1 µM; in data set [2], 3.03 µM and 3 µM; in data set [14], 3 µM; in [15] it was 10 µM; in data set [16], 0.7 µM. In addition, the “effect on blood pressure” value in data set [3] (62.4 and 624 μg/kg i.p.) was “do not affect blood pressure”; in data set [3] (normal rats, 0.624 mg/kg p.o.), “no significant effect”. Besides, the “effect on heart rate” value in data set [3] (normal rats, 0.624 mg/kg p.o.) is listed as “no significant effect”. Moreover, in data set [4], the “inhibition of carrageenan induced thermal hyperalgesia” value is “inhibits carrageenan (CGN) induced thermal hyperalgesia (CITH) with comparable efficacy to indomethacin”. For the same molecule, in data set [5], the “inhibition of thermal hyperalgesia (paw withdrawal latencies)” value is given as “inhibits thermal hyperalgesia”. For the same molecule, the “efficacy compared with carbamazepine” value in [5] (CBZ 100 mg/kg s.c.) is reported as “as, or more, effective than carbamazepine”. Besides, the “inhibition of static allodynia (paw withdrawal threshold)” value in data set [6] ([…] p.o., presence and absence of naloxone (1 mg/kg s.c.)) is given as “inhibits static allodynia”; in data set [6] (p.o., dose response), “inhibit static allodynia”. Besides, the “inhibition of LPS induced TNF alpha release” value in data set [7] is listed as “inhibits LPS induced TNF release”. The highest concentration (Cmax) in data set [8] (single oral dose 0.2 mg) was found to be 10 ± 5 nM; in [8] (single oral dose 0.8 mg), 40 ± 20 nM; in data set [8] (single oral dose 3.5 mg), 130 ± 40 nM; in [8] (single oral dose 10.5 mg) it was 300 ± 40 nM; in data set [8] (single oral dose 21 mg), 500 ± 100 nM; in [8] (single oral dose 28 mg) it was 600 ± 100 nM. Besides, the Tachycardia side effect result in data set [9] (single oral dose 0.2 mg) was “No”; in [9] (single oral dose 0.8 mg), “No”; in data set [9] (single oral dose 3.5 mg), “No”; in data set [9] (single oral dose 10.5 mg) it was “No”; in data set [9] (single oral dose 21 mg), “No”; in data set [9] (single oral dose 28 mg), “Yes”. For the same molecule, the “inhibition of carrageenan induced inflammation (paw volume)” value in [10] is “inhibits carrageenan (CGN) induced inflammation with comparable efficacy to indomethacin”. Also, the “inhibition of carageenan-induced inflammation” value in [11] is given as 25%. Also, the “reduction in heart rate” value in [12] was 25%. Besides, the “reduction in mean blood pressure” value in [12] is reported as 41%. Also, in data set [13], the dissociation constant Kd is 0.34 µM. The Ki in data set [17] (setting [18]) is 1.5 nM; in data set [17] (setting [19]), 1300 nM. The “affinity for adenosine receptors at pH below pH 7.4” value in data set [17] (pH below pH 7.4 compared with pH 7.4) is listed as “increased affinity”.

`COc1nc(NCc2ccccc2)c2ncn([C@@H]3O[C@H](CO)[C@@H](O)[C@H]3O)c2n1` [Compound 58]: the Ki in data set [17] (setting [18]) is 4.5 nM; in data set [17] (setting [19]) it was 6100 nM.

In the case of `Cc1nc2c(N)nc(NC3CCCCC3)nc2n1[C@@H]1O[C@H](CO)[C@@H](O)[C@H]1O` [Compound 59], the Ki turned out to be 31 nM in [17] (setting [18]) and 3900 nM in data set [17] (setting [19]).

Turning to `Cc1nc2c(N)nc(NC3CCCC3)nc2n1[C@@H]1O[C@H](CO)[C@@H](O)[C@H]1O` [Compound 60], the Ki is 49 nM in [17] (setting [18]) and 2400 nM in [17] (setting [19]).

As to `CCCCCCNc1nc(N)c2nc(C)n([C@@H]3O[C@H](CO)[C@@H](O)[C@H]3O)c2n1` [Compound 61], the Ki in data set [17] (setting [18]) was determined as 130 nM; in [17] (setting [19]), 4800 nM.

For `NCC1(CC(=O)O)CCCCC1` [gabapentin, reference compound], in data set [6] (p.o., dose response), the “inhibition of static allodynia (paw withdrawal threshold)” value is given as “inhibit static allodynia”.

The Cmax is the highest concentration seen after dosing. For orientation: Kd means the concentration at which binding is half-saturated. In general, Ki refers to the dissociation constant of the complex between target and ligand, obtained from inhibition or displacement.
